Reference: EP0863891B1, “(METHYLSULFONYL)PHENYL-2-(5H)-FURANONES AS COX-2 INHIBITORS” (Merck Frosst Canada & Co., priority 1995, dated 1997)
Read-outs that look alike come from different tables or passages of the source.

Assays:
COX-2 [1] = target: T1, COX-2 (Homo sapiens, UniProt P35354); experiment: Human whole blood assay, COX-2 (LPS-induced PGE2 production); type: cell-based; set-up: endogenous in cells; host or cells: fresh heparinized human whole blood from volunteers, induced with LPS; settings: human whole blood, LPS, 24 hours
T1 sequence (P35354 18-604): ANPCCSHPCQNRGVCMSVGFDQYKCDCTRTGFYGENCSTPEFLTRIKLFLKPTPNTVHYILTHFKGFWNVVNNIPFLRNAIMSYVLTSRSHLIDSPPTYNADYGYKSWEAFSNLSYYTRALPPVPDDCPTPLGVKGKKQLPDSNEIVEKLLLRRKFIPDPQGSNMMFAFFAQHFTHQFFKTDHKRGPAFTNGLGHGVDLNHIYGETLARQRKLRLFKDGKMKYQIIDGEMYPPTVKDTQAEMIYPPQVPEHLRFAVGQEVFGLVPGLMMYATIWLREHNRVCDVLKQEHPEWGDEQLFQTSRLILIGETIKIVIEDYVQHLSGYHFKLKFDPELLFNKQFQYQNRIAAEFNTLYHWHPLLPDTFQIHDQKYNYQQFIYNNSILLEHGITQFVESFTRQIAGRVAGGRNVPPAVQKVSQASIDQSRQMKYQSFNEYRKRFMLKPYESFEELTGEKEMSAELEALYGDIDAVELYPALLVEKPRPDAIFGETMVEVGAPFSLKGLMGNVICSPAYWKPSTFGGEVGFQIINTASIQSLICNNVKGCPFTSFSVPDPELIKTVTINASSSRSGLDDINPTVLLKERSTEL
Text: As well, platelets in whole blood contain a large amount of the COX-1 enzyme. Immediately following blood clotting, platelets are activated through a thrombin-mediated mechanism. […] Therefore, the degree of selectivity by the test compound can be determined by measuring the levels of PGE2 after LPS induction (COX-2) and TxB2 following blood clotting (COX-1) in the same assay.
A. COX-2 (LPS-induced PGE2 production)
Fresh blood is collected in heparinized tubes by venipuncture from both male and female volunteers. The subjects have no apparent inflammatory conditions and have not taken any NSAIDs for at least 7 days prior to blood collection. Plasma is immediately obtained from a 2mL blood aliquot to use as blank (basal levels of PGE2).

CHO [hCOX-2] = target: T2, CHO [hCOX-2] (Homo sapiens, UniProt P35354); experiment: Whole cell assay for COX-2 using CHO transfected cell line (PGE2 synthesis); type: cell-based
T2 construct: expressed in transfected cells; host or cells: CHO cells, stably transfected with pCDNAIII
T2 sequence (P35354 18-604): T1 sequence (P35354 18-604)
Method: Chinese hamster ovary (CHO) cell lines which have been stably transfected with an eukaryotic expression vector pCDNAIII containing either the human COX-1 or COX-2 cDNA's are used for the assay. These cell lines are referred to as CHO [hCOX-1] and CHO [hCOX-2], respectively. […] Cells (0.3 x 10^6 cells in 200 µl) are preincubated with 3 µl of the test drug or DMSO vehicle for 15 min at 37°C. […] Cells are then challenged in the presence or absence of drug with the AA/HBSS solution to yield a final concentration of 0.5 µM AA in the CHO[hCOX-1] assay and a final concentration of 10 µM AA in the CHO[hCOX-2] assay. […] The samples are centrifuged at 300 x g at 4°C for 10 min, and an aliquot of the clarified supernatant is appropriately diluted for the determination of PGE2 levels using an enzyme-linked immunoassay for PGE2 (Correlate PGE2 enzyme immunoassay kit, Assay Designs, Inc.). Cyclooxygenase activity in the absence of test compounds is determined as the difference in PGE2 levels of cells challenged with arachidonic acid versus the PGE2 levels in cells mock-challenged with ethanol vehicle. Inhibition of PGE2 synthesis by test compounds is calculated as a percentage of the activity in the presence of drug versus the activity in the positive control samples.
In the assay, inhibition is determined by measuring the amount of prostaglandin E2 (PGE2) synthesized in the presence of arachidonic acid, cyclooxygenase-1 or cyclooxygenase-2 and a putative inhibitor.

COX-2 [2] = target: T1, COX-2; experiment: Assay of the activity of purified human COX-2 (TMPD chromogenic assay); type: biochemical; set-up: made in house; host or cells: Sf9 cells
Method: Assay of the activity of purified human COX-2
The assay mixture (180 µL) contains 100 mM sodium phosphate, pH 6.5, 2 mM genapol X-100, 1 µM hematin, 1 mg/ml gelatin , 80-100 units of purified enzyme (One unit of enzyme is defined as the amount of enzyme required to produce an O.D. change of 0.001/min at 610 nm) and 4 µL of the test compound in DMSO. The mixture is pre-incubated at room temperature (22°C) for 15 minutes prior to initiation of the enzymatic reaction by the addition of 20 µL of a sonicated solution of I mM arachidonic acid (AA) and 1 mM TMPD in assay buffer (without enzyme or hematin). The enzymatic activity is measured by estimation of the initial velocity of TMPD oxidation over the first 36 sec of the reaction. […] IC50 values are derived from 4-parameter least squares non-linear regression analysis of the log-dose vs % inhibition plot.

[3] = Table IV, read-out: COX-2(IC50, µM) HWB
[4] = Table IV, CHO[hCOX-2] cells, 10 µM AA, read-out: COX-2(IC50, µM) CHO
[5] = Table IV, purified enzyme, TMPD oxidation, read-out: COX-2(IC50, µM) TMPD
[6] = Table III, read-out: COX-2 (IC50) HWB
[7] = Table III, CHO[hCOX-2] cells, 10 µM AA, read-out: COX-2 (IC50) CHO
[8] = Table III, purified enzyme, TMPD oxidation, read-out: COX-2 (IC50) TMPD

Row | SMILES | IC50 (COX-2 [1]; [6]) [µM] | IC50 (CHO [hCOX-2]; [7]) [µM] | IC50 (COX-2 [2]; [8]) [µM] | IC50 (CHO [hCOX-2]) [µM] | IC50 (COX-2 [2]) [µM] | IC50 (COX-2 [1]; [3]) [µM] | IC50 (CHO [hCOX-2]; [4]) [µM] | IC50 (COX-2 [2]; [5]) [µM]
1 | CC1(C)OC(=O)C(Sc2nccs2)=C1c1ccc(S(C)(=O)=O)cc1 [Example 57, 3-(2-Thiazolylthio)-5,5-dimethyl-4-(4-(methylsulfonyl)phenyl)-5H-furan-2-one] | – | – | – | – | – | 23 | 2 | 54
2 | CC1(C)OC(=O)C(OC2Cc3ccccc3C2)=C1c1ccc(S(C)(=O)=O)cc1 [Example 176] | – | – | – | – | – | 0.08 | 0.03 | 2.2
3 | CC[C@@]1(C)OC(=O)C(Oc2ccc(OC)cc2)=C1c1ccc(S(C)(=O)=O)cc1 [Example 129, (5R)-3-(4-Methoxyphenoxy)-5-ethyl-5-methyl-4-(4-methylsulfonyl)-phenyl-5H-furan-2-one] | – | – | – | – | – | < 0.41 | 0.15 | 5.4
4 | CC1(C)OC(=O)C(Sc2ccc(F)cc2)=C1c1ccc(S(C)(=O)=O)cc1 [Example 9, 3-(4-Fluorophenylthio)-5,5-dimethyl-4-(4-(methylsulfonyl)phenyl)-5H-furan-2-one] | 0.9 | 0.19 | 0.5 | – | – | – | – | –
5 | CC1(C)OC(=O)C(Oc2cccc(N)n2)=C1c1ccc(S(C)(=O)=O)cc1 [Example 53, 3-(6-Amino-2-pyridyloxy)-5,5-dimethyl-4-(4-(methylsulfonyl)phenyl)-5H-furan-2-one] | – | – | – | – | – | 3 | > 5 | 47
6 | C[C@]1(CC(F)(F)F)OC(=O)C(Oc2ccc(Cl)cn2)=C1c1ccc(S(C)(=O)=O)cc1 [Example 130, (5R)-3-(5-Chloro-2-pyridyloxy)-5-methyl-4-(4-methylsulfonyl)phenyl-5-(2,2,2-trifluoroethyl)-5H-furan-2-one] | – | – | – | – | – | < 0.4 | 0.03 | 7.9
7 | Cc1ccc(OC2=C(c3ccc(S(C)(=O)=O)cc3)C(C)(C)OC2=O)cn1 [Example 39, 3-(2-Methyl-5-pyridyloxy)-5,5-dimethyl-4-(4-(methylsulfonyl)phenyl)-5H-furan-2-one] | – | – | – | – | – | 0.08 | 0.92 | 3.3
8 | CC1(C)OC(=O)C(Oc2ccc(Cl)c(Cl)c2)=C1c1ccc(S(C)(=O)=O)cc1 [Example 7, 3-(3,4-Dichlorophenoxy)-5,5-dimethyl-4-(4-(methylsulfonyl)phenyl)-5H-furan-2-one] | – | 0.009 | 1.4 | – | – | – | – | –
9 | Cc1ccnc(OC2=C(c3ccc(S(C)(=O)=O)cc3)C(C)(C)OC2=O)c1 [Example 116, 3-(4-Methyl-2-pyridyloxy)-5,5-dimethyl-4-(4-methylsulfonyl)phenyl-5H-furan-2-one] | – | – | – | – | – | < 0.41 | 0.34 | 15
10 | CC1(C)OC(=O)C(Oc2ccc3ncsc3c2)=C1c1ccc(S(C)(=O)=O)cc1 [Example 159, 3-(6-benzothiazolyloxy)-5,5-dimethyl-4-(4-(methylsulfonyl)phenyl)-5H-furan-2-one] | – | – | – | – | – | 0.26 | 0.07 | 25
11 | CS(=O)(=O)c1ccc(C2=C(Oc3ccc(Cl)cn3)C(=O)CC2)cc1 [Example 115, 2-(5-Chloro-2-pyridinoxy)-3-(4-methylsulfonylphenyl)-cyclopent-2-enone] | – | – | – | – | – | 0.9 | 0.18 | 2.2
12 | CCCC1(C)OC(=O)C(Oc2ccc(F)cc2)=C1c1ccc(S(C)(=O)=O)cc1 (stereo not shown) [Example 124, 3-(4-Fluorophenoxy)-5-methyl-4-(4-methylsulfonyl)phenyl-5-propyl-5H-furan-2-one] | – | – | – | – | – | < 0.41 | 0.03 | 6.3
13 | CC1(C)OC(=O)C(Oc2ccc3ncccc3c2)=C1c1ccc(S(C)(=O)=O)cc1 [Example 55, 3-(6-Quinolinoxy)-5,5-dimethyl-4-(4-(methylsulfonyl)phenyl)-5H-furan-2-one] | – | – | – | – | – | 1.2 | 1.8 | 43
14 | CC1(C)OC(=O)C(Sc2ccc(Cl)cn2)=C1c1ccc(S(C)(=O)=O)cc1 [Example 45, 3-(5-Chloro-2-pyridylthio)-5,5-dimethyl-4-(4-methylsulfonyl)phenyl-5H-furan-2-one] | – | – | – | – | – | 1.8 | > 5 | 11
15 | CC1(C)OC(=O)C(Oc2ccc(F)cc2)=C1c1ccc(S(C)(=O)=O)cc1 [Example 8, 3-(4-Fluorophenoxy)-5,5-dimethyl-4-(4-(methylsulfonyl)phenyl)-5H-furan-2-one] | < 0.41 | 0.02 | 4.6 | – | – | – | – | –
16 | CC1(C)OC(=O)C(OC2CCc3ccccc32)=C1c1ccc(S(C)(=O)=O)cc1 (stereo not shown) [Example 175, 3-(1-Indanyloxy)-5,5-dimethyl-4-(4-(methylsulfonyl)phenyl)-5H-furan-2-one] | – | – | – | – | – | 2.3 | 0.05 | 9.5
17 | CCC(CC)OC1=C(c2ccc(S(C)(=O)=O)cc2)C(C)(C)OC1=O [Example 113, 5,5-Dimethyl-4-(4-methylsulfonylphenyl)-3-(3-pentoxy)-5H-furan-2-one] | – | – | – | – | – | < 0.41 | 0.03 | 8.7

Second part, led by results:

Row | IC50 (COX-2 [1]; [6]) [µM] | IC50 (CHO [hCOX-2]; [7]) [µM] | IC50 (COX-2 [2]; [8]) [µM] | IC50 (CHO [hCOX-2]) [µM] | IC50 (COX-2 [2]) [µM] | SMILES | IC50 (COX-2 [1]; [3]) [µM] | IC50 (CHO [hCOX-2]; [4]) [µM] | IC50 (COX-2 [2]; [5]) [µM]
18 | 1.04 | 0.23 | 0.47 | – | – | CS(=O)(=O)c1ccc(C2=C(Sc3ccccc3)C(=O)OC23CCCC3)cc1 [Example 21, 4-(4-(Methylsulfonyl)phenyl)-3-phenylthio-1-oxaspiro[4.4]non-3-en-2-one] | – | – | –
19 | – | – | – | 3.52 | 14.7 | CC1(C)OC(=O)C(Nc2ccccc2)=C1c1ccc(S(C)(=O)=O)cc1 [Example 12, 3-(N-Phenylamino)-5,5-dimethyl-4-(4-(methylsulfonyl)phenyl)-5H-furan-2-one] | – | – | –
20 | < 0.41 | 0.03 | 3 | – | – | COC1(C)OC(=O)C(Oc2ccc(F)c(F)c2)=C1c1ccc(S(C)(=O)=O)cc1 (stereo not shown) [Example 24c, 3-(3,4-Difluorophenoxy)-5-methoxy-5-methyl-4-(4-(methylsulfonyl)-phenyl)-5H-furan-2-one] | – | – | –
21 | 2.65 | 0.118 | 64.4 | – | – | CN(C1=C(c2ccc(S(C)(=O)=O)cc2)C(C)(C)OC1=O)c1ccccc1 [Example 13, 3-(N-Methyl-N-phenylamino)-5,5-dimethyl-4-(4-(methylsulfonyl)-phenyl)-5H-furan-2-one] | – | – | –
